Results taken from ChEMBL document CHEMBL4808203, “Angiokinase inhibition of VEGFR-2, PDGFR and FGFR and cell growth inhibition in lung cancer: Design, synthesis, biological evaluation and molecular docking of novel azaheterocyclic coumarin derivatives” (Bioorg Med Chem Lett, 2021).

Columns and labels:
[1] = tested on: A549; test: Cytotoxicity against human A549 cells assessed as cell viability measured by MTT assay; type: functional, cell-based
[2] = tested on: WI-38; test: Cytotoxicity against human WI-38 cells assessed as cell viability measured by MTT assay; type: ADME, cell-based
[3] = tested on: A549; test: Induction of apoptosis in human A549 cells assessed as early apoptotic cells measured after 24 hrs by Annexin-V-FITC/propidium iodide staining based assay (reference value: 0.39%); type: functional
[4] = tested on: A549; test: Cell cycle arrest in human A549 cells assessed as accumulation at S phase measured after 24 hrs (reference value: 36.58%); type: functional
[5] = tested on: A549; test: Cell cycle arrest in human A549 cells assessed as accumulation at pre-G1 phase measured after 24 hrs (reference value: 3.83%); type: functional
[6] = target: Epidermal growth factor receptor (Homo sapiens, UniProt P00533); test: Inhibition of EGFR (unknown origin)
Chain of Epidermal growth factor receptor (P00533 whole entry): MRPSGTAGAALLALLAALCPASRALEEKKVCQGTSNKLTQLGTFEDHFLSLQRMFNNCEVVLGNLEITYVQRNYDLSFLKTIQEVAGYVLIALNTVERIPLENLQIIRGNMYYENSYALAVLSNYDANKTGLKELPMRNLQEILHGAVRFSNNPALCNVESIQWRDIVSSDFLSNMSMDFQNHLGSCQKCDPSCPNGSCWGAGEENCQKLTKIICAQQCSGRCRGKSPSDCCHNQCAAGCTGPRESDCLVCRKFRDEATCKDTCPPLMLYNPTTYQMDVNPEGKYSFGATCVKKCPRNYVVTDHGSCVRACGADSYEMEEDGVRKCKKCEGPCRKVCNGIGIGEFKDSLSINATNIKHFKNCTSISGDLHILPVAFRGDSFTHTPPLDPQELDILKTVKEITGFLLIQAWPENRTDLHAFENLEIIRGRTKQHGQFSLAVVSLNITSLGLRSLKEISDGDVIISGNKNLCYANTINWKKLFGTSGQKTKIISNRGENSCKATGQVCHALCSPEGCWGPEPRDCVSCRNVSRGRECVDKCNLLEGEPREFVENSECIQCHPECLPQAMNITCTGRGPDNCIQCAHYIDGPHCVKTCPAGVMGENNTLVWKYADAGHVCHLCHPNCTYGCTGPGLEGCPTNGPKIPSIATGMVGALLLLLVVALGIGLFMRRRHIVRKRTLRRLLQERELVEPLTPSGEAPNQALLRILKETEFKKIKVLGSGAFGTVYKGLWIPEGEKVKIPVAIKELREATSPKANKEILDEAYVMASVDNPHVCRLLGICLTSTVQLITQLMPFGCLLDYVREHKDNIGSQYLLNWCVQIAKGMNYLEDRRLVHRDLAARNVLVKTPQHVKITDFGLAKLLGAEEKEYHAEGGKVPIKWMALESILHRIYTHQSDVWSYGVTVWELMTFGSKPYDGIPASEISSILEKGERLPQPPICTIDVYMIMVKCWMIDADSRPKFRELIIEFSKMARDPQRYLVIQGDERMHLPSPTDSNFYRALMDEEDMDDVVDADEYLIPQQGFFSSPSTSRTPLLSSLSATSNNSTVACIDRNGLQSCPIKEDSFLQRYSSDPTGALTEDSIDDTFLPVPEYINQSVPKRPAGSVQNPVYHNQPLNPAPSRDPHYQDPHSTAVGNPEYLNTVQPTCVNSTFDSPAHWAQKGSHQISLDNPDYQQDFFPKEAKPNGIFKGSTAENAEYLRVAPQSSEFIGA

[7] = tested on: A549; test: Cell cycle arrest in human A549 cells assessed as accumulation at […] phase measured after 24 hrs (reference value: 42.28%); type: functional
[8] = tested on: A549; test: Induction of apoptosis in human A549 cells assessed as necrotic cells measured after 24 hrs by Annexin-V-FITC/propidium iodide staining based assay (reference value: 1.29%); type: functional
[9] = tested on: A549; test: Induction of apoptosis in human A549 cells assessed as late apoptotic cells measured after 24 hrs by Annexin-V-FITC/propidium iodide staining based assay (reference value: 0.15%); type: functional
[10] = tested on: A549; test: Cell cycle arrest in human A549 cells assessed as accumulation at G2/M phase measured after 24 hrs (reference value: 28.28%); type: functional
[11] = target: Fibroblast growth factor receptor (Homo sapiens, UniProt P22607+P11362+P22455+P21802); test: Inhibition of FGFR (unknown origin); type: protein assay
[12] = target: Vascular endothelial growth factor receptor 2 (Homo sapiens, UniProt P35968); test: Inhibition of VEGFR2 (unknown origin)
Chain of Vascular endothelial growth factor receptor 2 (P35968 whole entry): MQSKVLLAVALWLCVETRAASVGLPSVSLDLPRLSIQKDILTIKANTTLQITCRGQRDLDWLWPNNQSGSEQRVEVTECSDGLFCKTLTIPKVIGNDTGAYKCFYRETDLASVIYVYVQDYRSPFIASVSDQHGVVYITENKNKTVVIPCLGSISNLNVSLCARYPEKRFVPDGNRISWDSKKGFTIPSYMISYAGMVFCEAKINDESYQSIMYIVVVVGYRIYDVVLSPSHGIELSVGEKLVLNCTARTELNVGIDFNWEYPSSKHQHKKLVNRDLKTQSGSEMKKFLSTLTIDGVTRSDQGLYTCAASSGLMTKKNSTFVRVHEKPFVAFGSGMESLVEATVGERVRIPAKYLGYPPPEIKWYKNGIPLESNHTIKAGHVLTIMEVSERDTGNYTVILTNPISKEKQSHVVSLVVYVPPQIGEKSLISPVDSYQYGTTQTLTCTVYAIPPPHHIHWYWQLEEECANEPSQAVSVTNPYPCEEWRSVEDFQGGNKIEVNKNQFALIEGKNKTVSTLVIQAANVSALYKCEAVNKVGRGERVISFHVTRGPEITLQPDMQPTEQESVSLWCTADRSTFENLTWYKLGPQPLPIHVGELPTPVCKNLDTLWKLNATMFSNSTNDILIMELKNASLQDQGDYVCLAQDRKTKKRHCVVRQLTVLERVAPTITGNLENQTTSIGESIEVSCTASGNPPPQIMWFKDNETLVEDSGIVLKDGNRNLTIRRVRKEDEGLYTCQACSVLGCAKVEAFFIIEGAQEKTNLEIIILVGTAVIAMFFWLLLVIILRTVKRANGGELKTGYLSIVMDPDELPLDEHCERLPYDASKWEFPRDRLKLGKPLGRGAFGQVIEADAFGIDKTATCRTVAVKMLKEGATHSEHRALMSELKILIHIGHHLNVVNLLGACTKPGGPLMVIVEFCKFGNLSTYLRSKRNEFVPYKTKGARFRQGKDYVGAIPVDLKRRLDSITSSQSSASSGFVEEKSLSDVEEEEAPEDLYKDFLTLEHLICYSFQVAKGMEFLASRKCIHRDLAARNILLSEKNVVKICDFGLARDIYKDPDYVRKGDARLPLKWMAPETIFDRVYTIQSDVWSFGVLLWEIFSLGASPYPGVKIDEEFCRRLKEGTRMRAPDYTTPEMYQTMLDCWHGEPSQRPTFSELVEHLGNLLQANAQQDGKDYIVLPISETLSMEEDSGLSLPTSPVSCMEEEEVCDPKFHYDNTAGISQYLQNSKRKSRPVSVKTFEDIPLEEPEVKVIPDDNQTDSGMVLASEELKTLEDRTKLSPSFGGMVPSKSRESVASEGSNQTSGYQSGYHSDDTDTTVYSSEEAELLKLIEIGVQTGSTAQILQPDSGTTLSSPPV

[13] = target: Platelet-derived growth factor receptor beta (Homo sapiens, UniProt P09619); test: Inhibition of PDGFRbeta (unknown origin)
Chain of Platelet-derived growth factor receptor beta (P09619 whole entry): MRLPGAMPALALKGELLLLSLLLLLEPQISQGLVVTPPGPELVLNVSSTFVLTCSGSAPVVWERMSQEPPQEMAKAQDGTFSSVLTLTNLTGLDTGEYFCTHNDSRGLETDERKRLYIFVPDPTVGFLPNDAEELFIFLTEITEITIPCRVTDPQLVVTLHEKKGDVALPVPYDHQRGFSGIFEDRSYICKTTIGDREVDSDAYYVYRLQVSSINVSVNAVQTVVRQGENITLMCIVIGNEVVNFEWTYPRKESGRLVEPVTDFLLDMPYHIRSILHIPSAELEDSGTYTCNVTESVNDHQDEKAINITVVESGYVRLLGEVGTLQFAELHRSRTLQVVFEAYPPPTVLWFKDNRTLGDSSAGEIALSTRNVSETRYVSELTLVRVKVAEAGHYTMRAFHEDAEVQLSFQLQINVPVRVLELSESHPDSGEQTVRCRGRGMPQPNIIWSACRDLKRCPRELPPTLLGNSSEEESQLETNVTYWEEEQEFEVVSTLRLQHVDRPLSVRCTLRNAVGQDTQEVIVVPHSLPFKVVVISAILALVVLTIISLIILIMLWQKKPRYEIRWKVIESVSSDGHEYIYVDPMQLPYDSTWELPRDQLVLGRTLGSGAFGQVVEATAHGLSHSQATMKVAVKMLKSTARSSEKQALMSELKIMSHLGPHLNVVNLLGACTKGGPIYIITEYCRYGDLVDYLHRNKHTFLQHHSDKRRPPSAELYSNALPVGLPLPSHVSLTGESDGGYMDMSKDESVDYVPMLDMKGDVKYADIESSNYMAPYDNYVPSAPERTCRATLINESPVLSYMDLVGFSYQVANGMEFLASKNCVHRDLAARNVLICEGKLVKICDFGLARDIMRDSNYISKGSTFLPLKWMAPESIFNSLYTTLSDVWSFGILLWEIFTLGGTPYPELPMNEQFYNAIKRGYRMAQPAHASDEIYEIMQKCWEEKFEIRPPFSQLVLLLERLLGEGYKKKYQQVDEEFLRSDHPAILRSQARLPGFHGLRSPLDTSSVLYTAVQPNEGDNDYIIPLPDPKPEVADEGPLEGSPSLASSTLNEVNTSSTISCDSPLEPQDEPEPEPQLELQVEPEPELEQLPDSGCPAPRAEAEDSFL

Row | SMILES | IC50 [1] | other results
1 | O=c1oc2ccccc2c(O)c1-c1cc(-c2ccc(F)cc2)nc(O)n1 | 2.39 µM | IC50 [2]: 37.8 µM
2 | O=c1oc2ccccc2c(O)c1-c1cc(-c2ccc(F)cc2)nc(S)n1 | 21.1 µM | 
3 | COc1ccc(-c2cc(-c3c(O)c4ccccc4oc3=O)nc(S)n2)cc1OC | 62.6 µM | 
4 | O=c1oc2ccccc2c(O)c1-c1cc(-c2c(F)cccc2Cl)nc(O)n1 | 5.1 µM | 
5 | O=c1oc2ccccc2c(O)c1-c1cc(-c2c(F)cccc2Cl)nc(S)n1 | 3.98 µM | IC50 [2]: 30.5 µM
6 | N#Cc1c(-c2c(F)cccc2Cl)cc(-c2c(O)c3ccccc3oc2=O)nc1N | 46.3 µM | 
7 | COc1ccc(C2CC(c3c(O)c4ccccc4oc3=O)=NN2)cc1OC (stereo not given) | 7.58 µM | 
8 | O=c1oc2ccccc2c(O)c1C1=NNC(c2ccc(F)cc2)C1 (stereo not given) | 1.05 µM | IC50 [2]: 19.9 µM
9 | COc1cccc(-c2cc(-c3c(O)c4ccccc4oc3=O)nc(N)c2C#N)c1 | 2.38 µM | Activity [3]: 4.67%; Activity [4]: 58.89%; Activity [5]: 42.14%; IC50 [6]: 0.033 µM; IC50 [2]: 53.8 µM; Activity [7]: 38.55%; Activity [8]: 17.12%; Activity [9]: 22.37%; Activity [10]: 11.32%; IC50 [11]: 0.021 µM; IC50 [12]: 0.042 µM; IC50 [13]: 0.02 µM
10 | N#Cc1c(-c2ccc(F)cc2)cc(-c2c(O)c3ccccc3oc2=O)nc1N | 22.3 µM | 
11 | COc1cc(-c2cc(-c3c(O)c4ccccc4oc3=O)nc(O)n2)ccc1O | 138 µM | 
12 | COc1ccc(-c2cc(-c3c(O)c4ccccc4oc3=O)nc(N)c2C#N)cc1OC | 7.38 µM | 
13 | COc1cccc(C2CC(c3c(O)c4ccccc4oc3=O)=NN2)c1 (stereo not given) | 5.91 µM | 
14 | COc1cccc(-c2cc(-c3c(O)c4ccccc4oc3=O)nc(O)n2)c1 | 5.55 µM | 
15 | COc1ccc(-c2cc(-c3c(O)c4ccccc4oc3=O)nc(O)n2)cc1OC | 21.7 µM | 
16 | COc1cc(C2CC(c3c(O)c4ccccc4oc3=O)=NN2)ccc1O (stereo not given) | 8.4 µM | 
17 | COc1cccc(-c2cc(-c3c(O)c4ccccc4oc3=O)nc(S)n2)c1 | 10.2 µM | 
18 | COc1cc(-c2cc(-c3c(O)c4ccccc4oc3=O)nc(S)n2)ccc1O | 36.1 µM | 
19 | COc1cc(-c2cc(-c3c(O)c4ccccc4oc3=O)nc(N)c2C#N)ccc1O | 38.5 µM | 
20 | O=c1oc2ccccc2c(O)c1C1=NNC(c2c(F)cccc2Cl)C1 (stereo not given) | 23.5 µM | 
